# Where two headings read alike, the source gives them in different places.
# Molecular target: T1, partially purified rat brain famesyl protein transferase (FPT) (Rattus norvegicus, UniProt Q02293+Q04631)
# T1 construct: partially purified rat brain famesyl protein transferase (FPT); from tissue; host or cells: rat brain
# Assay: In vitro enzyme assay: inhibition of Ras-CVLS farnesylation by farnesyl protein transferase (FPT)
# Format: biochemical
# Conditions: for FPT Inhibition: @ 0.38 µM
# Method: • 1. In vitro enzyme assays: FPT IC50 (inhibition of famesyl protein transferase, in vitro enzyme assay) are determined by the methods disclosed in […] or WO 95/10516. […] Cell-based assay. COS IC50 values refer to the COS cells activity inhibition of Ras processing, are determined by the methods disclosed in […] or WO 95/10516.
# T1 sequence (Q02293 whole entry, one chain of several): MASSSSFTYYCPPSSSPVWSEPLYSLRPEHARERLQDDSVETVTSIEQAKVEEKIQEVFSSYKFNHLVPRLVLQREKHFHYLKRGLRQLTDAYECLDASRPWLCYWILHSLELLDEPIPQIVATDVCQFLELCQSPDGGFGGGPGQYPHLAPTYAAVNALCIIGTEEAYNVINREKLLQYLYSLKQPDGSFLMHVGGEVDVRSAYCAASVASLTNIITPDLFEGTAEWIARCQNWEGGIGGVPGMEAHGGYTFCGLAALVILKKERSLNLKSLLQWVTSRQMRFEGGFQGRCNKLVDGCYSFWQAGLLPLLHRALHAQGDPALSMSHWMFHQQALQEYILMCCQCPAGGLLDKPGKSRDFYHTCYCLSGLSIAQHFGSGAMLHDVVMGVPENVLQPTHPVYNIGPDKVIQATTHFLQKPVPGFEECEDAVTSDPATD
compound,measurement,setting,value
"O=C(NC1CC1)[C@@H]1CCCN(C2c3ncc(Br)cc3CCc3cc(Cl)cc(Br)c32)C1 (some centres unmarked) [Example 49, N-cyclopropyl-1-(3,10-dibromo-8-chloro-6,11-dihydro-5H-benzo[5,6]cyclohepta[1,2-b]pyridin-11-yl)-3-piperidinecarboxamide]",IC50,unit printed as uM (Examples 49-54),0.58 µM
"O=C(NCc1cccnc1)[C@H]1CCCCN1C1c2ccc(Cl)cc2CCc2cc(Br)cnc21 (single isomer, unassigned) [Isomer D2 amide]",FPT Inhibition,,FPT Inhibition = 0% @ 0.38 µM
"O=C(NCc1cccnc1)C1CCCCN1C1c2ccc(Cl)cc2CCc2cc(Br)cnc21 (single isomer, unassigned) [Isomer C1 amide]",IC50,,0.3 µM
O=C(NCc1cccnc1)C1CCCCN1C1c2ncc(Br)cc2CCc2cc(Cl)cc(Br)c21 (stereo not drawn) [Isomer C3 amide],IC50,,0.3 µM
"O=C(NCc1cccnc1)C1CCCN(C2c3ccc(Cl)cc3CCc3cc(Br)cnc32)C1 (centres unmarked) [Example 10, 1-(8-chloro-3-bromo-5,6-dihydro-11H-benzo[5,6]-cyclohepta[1,2-b]pyridin-11-yl)piperidine-3-(N-3-pyridylmethylamino)carboxamide]",IC50,,0.21 µM
"O=C(NCc1cccnc1)C1CCCN(C2c3ccc(Cl)cc3CCc3cc(Br)cnc32)C1 (single isomer, unassigned) [Example 10 Isomer B, 1-(3-Bromo-8-chloro-6,11-dihydro-5H-benzo[5,6]cyclohepta[1,2-b]pyridin-11-yl)-N-(3-pyridinylmethyl)-3-piperidinecarboxamide]",IC50,,0.194 µM
"O=C(CCC1CCN(C2c3ccc(Cl)cc3CCc3cc(Br)cnc32)CC1)NCc1cccnc1 (centres unmarked) [Example 44, 1-(3-Bromo-8-chloro-6,11-dihydro-5H-benzo[5,6]cyclohepta[1,2-b]pyridin-11-yl)-N-(3-pyridylmethyl)-4-piperidinepropanamide]",inhibition at 0.35 µM,read-out: FPT INH,39%
"O=C(NCc1ccncc1)C1CCN(C2c3ccc(Cl)cc3CCc3cc(Br)cnc32)CC1 (centres unmarked) [Example 3, 1-(3-Bromo-8-chloro-6,11-dihydro-5H-benzo[5,6]cyclohepta[1,2-b]pyridin-11-yl)-N-(4-pyridinylmethyl)-4-piperidinecarboxamide]",inhibition at 1.1 µM,read-out: FPT Inhibition,21%
"O=C(NCc1cccnc1)[C@H]1CCCCN1C1c2ccc(Cl)cc2CCc2cc(Br)cnc21 (single isomer, unassigned) [Isomer C2 amide]",FPT Inhibition,,FPT Inhibition =11% @ 0.38 µM
"O=C(NC1CCNCC1)C1CCN(C2c3ccc(Cl)cc3CCc3cc(Br)cnc32)CC1 (centres unmarked) [Example 7 Step B, 1-(3-Bromo-8-chloro-6,11-dihydro-5H-benzo[5,6]cyclohepta[1,2-b]pyridin-11-yl)-N-(4-piperidinyl)-4-piperidinecarboxamide]",inhibition at 0.39 µM,read-out: FPT Inhibition,8.75%
"O=C(NCc1ccccn1)C1CCN(C2c3ccc(Cl)cc3CCc3cc(Br)cnc32)CC1 (centres unmarked) [Example 5, 1-(3-Bromo-8-chloro-6,11-dihydro-5H-benzo[5,6]cyclohepta[1,2-b]pyridin-11-yl)-N-(2-pyridinyimethyl)-4-piperidinecarboxamide]",IC50,,1.8 µM

# Source: patent EP0931078B1, “NOVEL TRICYCLIC PIPERIDINYL COMPOUNDS USEFUL AS INHIBITORS OF FARNESYL-PROTEIN TRANSFERASE” (SCHERING CORPORATION, priority 1996, dated 1998)
